Results reported in patent US5563176A (priority 1994, dated 1996).
Like-named read-outs stand apart in the source and are kept apart here.

Tests used:
HL60 cells (myeloid) = experiment: cells; assay type: cell-based, human; conditions: Homo sapiens, HL-60, 2 h
8392 cells (B-cell) = experiment: cells; assay type: cell-based; conditions: 2 h
8402, T-cell = experiment: inhibition of thymidine incorporation after two hour exposure, 8402; assay type: cell-based; conditions: 2 h, Table 1, 8402, two hour exposure
Description: (§1) To assess cytotoxic effects, various concentrations of illudins were added to cultures of cells for 48 hours, then cell growth/viability was determined by trypan blue exclusion. As an alternative to 48 hour continuous exposure studies, cells were plated in liquid culture in 96 well plates, exposed to various concentrations of illudins for 2 hours, pulsed with [^3 H]-thymidine for one to two hours and harvested onto glass filters. The filter papers were added to vials containing scintillation fluid and residual radioactivity determined in a beta (scintillation) counter.
(§2) two hour exposure to the toxins (N - 3).

242, melanoma = experiment: inhibition of thymidine incorporation after two hour exposure, 242; assay type: cell-based; conditions: 2 h; Table 1; 242, two hour exposure
Description: as §1, §2

547, ovarian = experiment: inhibition of thymidine incorporation after two hour exposure, 547; assay type: cell-based; conditions: 2 h; Table 1; 547, two hour exposure
Description: as §1, §2

SL-2, murine (thymic) = experiment: inhibition of thymidine incorporation after two hour exposure, SL-2; assay type: cell-based; conditions: Mus musculus, 2 h; Table 1; SL-2, two hour exposure
Description: as §1, §2

MCF-7, breast = experiment: cells; assay type: cell-based, human; conditions: Homo sapiens, MCF7, 2 h
MDA-231, breast = experiment: cells; assay type: cell-based; conditions: Homo sapiens, MDA-MB-231, 2 h
MV522 cells = experiment: cells; assay type: cell-based, human; conditions: Homo sapiens, MV522, 2 h, read-out: Two hour IC50
[1] = tested on: MDA-231 3-1 (gp170+) cells; experiment: sensitivity of mdr lines, MDA-231 3-1; assay type: cell-based; conditions: Homo sapiens, MDA-MB-231
[2] = tested on: MCF7-wt parent (Breast) cells; experiment: sensitivity of mdr lines, MCF7-wt parent; assay type: cell-based; conditions: Homo sapiens; MCF7-wt Parent; read-out: Sensitivity of mdr lines
[3] = tested on: MCF7 ADR (GSH-transferase) cells; experiment: cells; assay type: cell-based; conditions: Homo sapiens, NCI/ADR-RES, read-out: Sensitivity of mdr lines
HL-60 parent cells = experiment: sensitivity of mdr lines, HL-60 parent; assay type: cell-based; conditions: Homo sapiens
HL-60 ADR (gp150+) cells = experiment: sensitivity of mdr lines, HL-60 ADR; assay type: cell-based; conditions: Homo sapiens, HL60/ADR
KB parent cells = experiment: sensitivity of mdr lines, KB parent; assay type: cell-based
KB C-1 (gp170+) cells = experiment: sensitivity of mdr lines, KB C-1; assay type: cell-based; conditions: KBC-1
KB VBL (gp170+) cells = experiment: sensitivity of mdr lines, KB VBL; assay type: cell-based
L1210 parent cells = experiment: sensitivity of mdr lines, L1210 parent; assay type: cell-based; conditions: Mus musculus
[4] = tested on: L1210 DDPt (cis-plat) cells; experiment: sensitivity of mdr lines, L1210 DDPt; assay type: cell-based; conditions: Mus musculus
L1210 BCNU cells = experiment: sensitivity of mdr lines, L1210 BCNU; assay type: cell-based; conditions: Mus musculus
[5] = tested on: L1210 PAM (melphalan) cells; experiment: sensitivity of mdr lines, L1210 PAM; assay type: cell-based; conditions: Mus musculus
[6] = tested on: L1210 CPA (cyclophos) cells; experiment: sensitivity of mdr lines, L1210 CPA; assay type: cell-based; conditions: Mus musculus
HL-60 cells = experiment: cells; assay type: cell-based, human
HL60 cells = experiment: cells; assay type: cell-based; conditions: Homo sapiens, HL-60, 48 h, read-out: 48 hour IC50
8392 cells = experiment: cells; assay type: cell-based; conditions: 48 h, read-out: 48 hour IC50
MV522 = experiment: cells; assay type: cell-based; conditions: Homo sapiens, MV522, 48 h, read-out: 48 hour IC50
[7] = tested on: Molt-4 (human T-cell leukemia) xenograft; experiment: Molt-4 xenograft in athymic Balb/c nu/nu mice; assay type: in vivo; conditions: 30 μg/kg, nude mice; FIG. 5
L1210 cells = experiment: L1210 in vivo, increased life span
Description: In collaboration, the in vivo effects of dehydroilludin M was again studied. Initially the compound was studied against L1210 cells. […] The dehydroilludin M was then administered as a 24 hour infusion (5.0 mg/kg); the ILS was 11%. After we became aware of the presence of the energy-dependent uptake in human myelocytic cells, dehydroilludin M was screened for in vivo efficacy against a syngeneic mouse AML model using C1498 cells and a single bolus of […], 2.5 mg/kg IP, produced an ILS of 35%.

[8] = tested on: HL60/MRI cells (human myeloid leukemia tumor cells)
[9] = tested on: human lung adenocarcinoma MV522; conditions: in vivo
[10] = tested on: human lung adenocarcinoma MV522; experiment: animal or person; conditions: MV522, ip, read-out: life span
tolerability in mice = conditions: for MTD at 672 h: mouse, in vivo
L1210 = experiment: zone of inhibition / colony formation, L1210

CC1=C2C(=O)C(C)(C)C=C2C(=O)[C@](C)(O)C12CC2 [Dehydroilludin M]
IC50 (HL60 cells (myeloid)): 246 ± 19 nM
IC50 (HL60 cells (myeloid); read-out: Two hour IC50): 377 ± 81 nM
IC50 (8392 cells (B-cell)): > 38000 nM
IC50 (8392 cells (B-cell); read-out: Two hour IC50): 61300 nM
IC50 (8402, T-cell): > 38000 nM
IC50 (242, melanoma): > 38000 nM
IC50 (547, ovarian): > 38000 nM
IC50 (SL-2, murine (thymic)): 5240 nM
IC50 (MCF-7, breast): 653 ± 65 nM
IC50 (MDA-231, breast): 112 ± 17 nM
IC50 (MV522 cells): 1830 nM
IC50 [1]: 58 ± 11 nM
IC50 [2]: 92 ± 15 nM
IC50 [3]: 68 ± 15 nM
IC50 (HL-60 parent cells): 163 ± 11 nM
IC50 (HL-60 ADR (gp150+) cells): 191 ± 44 nM
IC50 (KB parent cells): 125 ± 14 nM
IC50 (KB C-1 (gp170+) cells): 80 ± 18 nM
IC50 (KB VBL (gp170+) cells): 78 ± 19 nM
IC50 (L1210 parent cells): 62 ± 8 nM
IC50 [4]: 119 ± 39 nM
IC50 (L1210 BCNU cells): 100 ± 31 nM
IC50 [5]: 73 ± 31 nM
IC50 [6]: 38 ± 15 nM
toxicity to HL-60 cells (HL-60 cells): less toxic
IC50 (HL60 cells): 296 ± 66 nM
IC50 (8392 cells): 269 ± 100 nM
IC50 (MV522): 313 ± 23 nM
complete regression of tumors [7]: three of five tumors underwent complete regression
ILS (L1210 cells; 2.5 mg/kg IP daily for 5 days): 9%
ILS (L1210 cells; 24 hour infusion (5.0 mg/kg)): 11%
total tumor weight ([8]; 1 mg/kg IV, day 11): 114 ± 55 Mg
total tumor weight ([8]; 1 mg/kg IV, day 18): 883 ± 311 Mg
total tumor weight ([8]; 1 mg/kg IV, day 25): 2274 ± 992 Mg
total tumor weight ([8]; 1 mg/kg IV, day 32): 6025 ± 1772 Mg
total tumor weight ([8]; 1 mg/kg IV, day 40): 11507 ± 3707 Mg
total tumor weight ([8]; 3 mg/kg IV, day 11): 101 ± 40 Mg
total tumor weight ([8]; 3 mg/kg IV, day 18): 911 ± 309 Mg
total tumor weight ([8]; 3 mg/kg IV, day 25): 2127 ± 1092 Mg
total tumor weight ([8]; 3 mg/kg IV, day 32): 2854 ± 1260 Mg
total tumor weight ([8]; 3 mg/kg IV, day 40): 4784 ± 2303 Mg
tumor inhibition ([8]; IP twice a week, FIG. 6): dose related tumor inhibition
inhibition of tumor growth ([8]; IV twice a week, dose dependent): effective at inhibiting tumor growth
adverse effects (food or water intake, body weight) ([8]; highest amount of either drug, IV): did not display any evidence of adverse effect
efficacy in this model [9]: markedly increased the lifespan
response vs control in vivo at 30 mg/kg [10]: 163 ± 6%
toxicity to mice (tolerability in mice; 60,000 μg/kg IP twice a week): nontoxic
MTD at 672 h (tolerability in mice; ip): 60 mg/kg
MTD at 672 h (tolerability in mice; iv): 1 mg/kg
Zone Size (L1210; L1210, dilution 1/25): 400
Zone Size (L1210; L1210, dilution 1/125): 200
Zone Size (L1210; L1210, dilution 1/125 (repeat)): 300
Zone Size (L1210; L1210, dilution 1/625): 100
